According to publication PMC4279406, “Simultaneous targeting of PI3Kδ and a PI3Kδ-dependent MEK1/2-Erk1/2 pathway for therapy in pediatric B-cell acute lymphoblastic leukemia” (Oncotarget, 2014):

Tests used:
[1] = test system: primary non B-ALL leukemia cells; assay: Viability of primary mononuclear cells from pediatric patients (CCK-8); format: cell-based, human; conditions: 72 h, 1/7 specimens
From the text: (§1) Figure 3 PI3Kδ inhibition led to blockade of B cell leukemia cells proliferation via induction of cell cycle arrest and apoptosis Raji cells treated with X-370 for indicated times and at serial diluted concentrations were subjected to Annexin V-FITC/PI staining (A) and PI staining (B) and FACS analysis to show cell apoptosis and cell cycle distribution respectively. (C) X-370 inhibited proliferation of human leukemia primary cells. Freshly isolated human primary mononuclear cells from bone marrow samples of patients were treated with X-370 for 72 h and cell viability was assayed using CCK-8 assay. IC50s of each sample were plotted where 10 μM was assigned to specimens with IC50 >10 μM. Each symbol represents an individual patient sample. […]
(§2) Cell viability was assessed using Cell Counting Kit (CCK-8, Dojindo, Japan) following the manufacturer's protocol and OD values were measured with a Spectramax M5 plate reader (Molecular Devices, Sunnyvale, CA)[45].
(§3) Bone marrow was obtained from patients after provision of informed consent using guidelines approved by the Committee on the Use of Human Subjects in Research at Shanghai Jiaotong University or Shanghai Fudan University under a protocol approved by the Review Board. […] Cell viability and phosphorylated Akt and Erk1/2 were then detected.

primary B-ALL cells = assay: as above; format: cell-based, human; conditions: 72 h, 8/13 specimens
From the text: as §1, §2, §3

PIP4K2α = target: T1, PIP4K2α (Homo sapiens, UniProt P48426); assay: Kinase Profiler lipid kinase relative activity; format: biochemical; conditions: X-370 10 μM, compared to DMSO control
T1 construct: purchased Millipore (Kinase Profiler Services, United Kingdom)
Procedure: (§4) Figure 1 Structure of X-370 and its inhibitory activity against lipid kinases (A) Chemical structure of X-370. (B) X-370 docked to the crystal structure of PI3Kδ. The model was generated based on the co-crystal structure of PI3Kδ and ZSTK474 (PDB ID: 2WXL). (C) IC50 of X-370 against PI3Kδ increased along with ATP concentration. […] Data was obtained from Kinase Profiler Services (Millipore, United Kingdom). Briefly, X-370 was solved in DMSO at a concentration of 10 mM, 10-point kinase inhibitory activity was measured over concentrations in a half-log dilution series started at 1000 nM with ATP at a concentration consistent with Km of each isoform of class I PI3K and IC50s were calculated. Relative kinase activity in the presence of 10 μM X-370 compared to DMSO control was measured for the rest of lipid kinases. TEXT PRINTED IN THE PICTURE: (D) X-370: IC50 (nM): 7 (Isoform: PI3Kδ); IC50 (nM): 433 (Isoform: PI3Kα); IC50 (nM): >1,000 (Isoform: PI3Kγ); IC50 (nM): >1,000 (Isoform: PI3Kβ); Relative Activity (%) X-370 (10 μM): 55 (Lipid Kinases: PI3KC2α); Relative Activity (%) X-370 (10 μM): 63 (Lipid Kinases: PI3KC2γ); Relative Activity (%) X-370 (10 μM): 105 (Lipid Kinases: PIP4K2α); Relative Activity (%) X-370 (10 μM): 100 (Lipid Kinases: PIP5K1α); Relative Activity (%) X-370 (10 μM): 103 (Lipid Kinases: PIP5K1γ) DOUBTS OF THE COPYIST ABOUT THIS PICTURE: Panel D, left table (Isoform / IC50): no substance label is printed in this table; assigned to X-370, the only label printed in the panel (head of the right table)
(§5) In vitro kinase profile assays were analyzed by the Kinase Profiler Service (Millipore, United Kingdom) following its guidelines. A GST-tagged human p110δ and regulatory full-length p85 were co-expressed in insect cell Sf9. Recombinant protein was extracted by affinity purification. The PI3K kinase activity was determined in the increasing concentration of ATP and X-370 with PI3-Kinase HTRF™ Assay kit (Millipore) as described previously.

PI3KC2γ = target: T2, PI3KC2γ (Homo sapiens, UniProt O75747); assay: Kinase Profiler lipid kinase relative activity; format: biochemical; conditions: X-370 10 μM, compared to DMSO control
T2 construct: purchased Millipore (Kinase Profiler Services, United Kingdom)
Procedure: as §4, §5

PIP5K1γ = target: T3, PIP5K1γ (Homo sapiens, UniProt O60331); assay: Kinase Profiler lipid kinase relative activity; format: biochemical; conditions: X-370 10 μM, compared to DMSO control
T3 construct: purchased Millipore (Kinase Profiler Services, United Kingdom)
Procedure: as §4, §5

PI3KC2α = target: T4, PI3KC2α (Homo sapiens, UniProt O00443); assay: Kinase Profiler lipid kinase relative activity; format: biochemical; conditions: X-370 10 μM, compared to DMSO control
T4 construct: purchased Millipore (Kinase Profiler Services, United Kingdom)
Procedure: as §4, §5

PIP5K1α = target: T5, PIP5K1α (Homo sapiens, UniProt Q99755); assay: Kinase Profiler lipid kinase relative activity; format: biochemical; conditions: X-370 10 μM, compared to DMSO control
T5 construct: purchased Millipore (Kinase Profiler Services, United Kingdom)
Procedure: as §4, §5

T5 sequence (Q99755 whole entry, species assumed): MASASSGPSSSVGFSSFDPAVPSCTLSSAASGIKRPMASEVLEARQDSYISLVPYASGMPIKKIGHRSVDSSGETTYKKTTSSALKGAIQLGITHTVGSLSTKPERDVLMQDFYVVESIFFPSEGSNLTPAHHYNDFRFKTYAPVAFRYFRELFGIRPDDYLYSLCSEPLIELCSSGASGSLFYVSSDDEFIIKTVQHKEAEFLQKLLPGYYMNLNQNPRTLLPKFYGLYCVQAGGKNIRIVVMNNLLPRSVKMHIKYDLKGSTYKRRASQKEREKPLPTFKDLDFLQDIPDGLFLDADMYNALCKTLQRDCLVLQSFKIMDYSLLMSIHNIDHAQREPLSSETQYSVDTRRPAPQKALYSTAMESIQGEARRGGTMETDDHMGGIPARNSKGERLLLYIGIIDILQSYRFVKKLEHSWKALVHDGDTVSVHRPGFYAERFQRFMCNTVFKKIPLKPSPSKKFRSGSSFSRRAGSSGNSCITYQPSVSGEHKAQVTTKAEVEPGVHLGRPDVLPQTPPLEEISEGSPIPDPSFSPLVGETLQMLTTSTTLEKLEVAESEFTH
T4 sequence (O00443 whole entry, species assumed): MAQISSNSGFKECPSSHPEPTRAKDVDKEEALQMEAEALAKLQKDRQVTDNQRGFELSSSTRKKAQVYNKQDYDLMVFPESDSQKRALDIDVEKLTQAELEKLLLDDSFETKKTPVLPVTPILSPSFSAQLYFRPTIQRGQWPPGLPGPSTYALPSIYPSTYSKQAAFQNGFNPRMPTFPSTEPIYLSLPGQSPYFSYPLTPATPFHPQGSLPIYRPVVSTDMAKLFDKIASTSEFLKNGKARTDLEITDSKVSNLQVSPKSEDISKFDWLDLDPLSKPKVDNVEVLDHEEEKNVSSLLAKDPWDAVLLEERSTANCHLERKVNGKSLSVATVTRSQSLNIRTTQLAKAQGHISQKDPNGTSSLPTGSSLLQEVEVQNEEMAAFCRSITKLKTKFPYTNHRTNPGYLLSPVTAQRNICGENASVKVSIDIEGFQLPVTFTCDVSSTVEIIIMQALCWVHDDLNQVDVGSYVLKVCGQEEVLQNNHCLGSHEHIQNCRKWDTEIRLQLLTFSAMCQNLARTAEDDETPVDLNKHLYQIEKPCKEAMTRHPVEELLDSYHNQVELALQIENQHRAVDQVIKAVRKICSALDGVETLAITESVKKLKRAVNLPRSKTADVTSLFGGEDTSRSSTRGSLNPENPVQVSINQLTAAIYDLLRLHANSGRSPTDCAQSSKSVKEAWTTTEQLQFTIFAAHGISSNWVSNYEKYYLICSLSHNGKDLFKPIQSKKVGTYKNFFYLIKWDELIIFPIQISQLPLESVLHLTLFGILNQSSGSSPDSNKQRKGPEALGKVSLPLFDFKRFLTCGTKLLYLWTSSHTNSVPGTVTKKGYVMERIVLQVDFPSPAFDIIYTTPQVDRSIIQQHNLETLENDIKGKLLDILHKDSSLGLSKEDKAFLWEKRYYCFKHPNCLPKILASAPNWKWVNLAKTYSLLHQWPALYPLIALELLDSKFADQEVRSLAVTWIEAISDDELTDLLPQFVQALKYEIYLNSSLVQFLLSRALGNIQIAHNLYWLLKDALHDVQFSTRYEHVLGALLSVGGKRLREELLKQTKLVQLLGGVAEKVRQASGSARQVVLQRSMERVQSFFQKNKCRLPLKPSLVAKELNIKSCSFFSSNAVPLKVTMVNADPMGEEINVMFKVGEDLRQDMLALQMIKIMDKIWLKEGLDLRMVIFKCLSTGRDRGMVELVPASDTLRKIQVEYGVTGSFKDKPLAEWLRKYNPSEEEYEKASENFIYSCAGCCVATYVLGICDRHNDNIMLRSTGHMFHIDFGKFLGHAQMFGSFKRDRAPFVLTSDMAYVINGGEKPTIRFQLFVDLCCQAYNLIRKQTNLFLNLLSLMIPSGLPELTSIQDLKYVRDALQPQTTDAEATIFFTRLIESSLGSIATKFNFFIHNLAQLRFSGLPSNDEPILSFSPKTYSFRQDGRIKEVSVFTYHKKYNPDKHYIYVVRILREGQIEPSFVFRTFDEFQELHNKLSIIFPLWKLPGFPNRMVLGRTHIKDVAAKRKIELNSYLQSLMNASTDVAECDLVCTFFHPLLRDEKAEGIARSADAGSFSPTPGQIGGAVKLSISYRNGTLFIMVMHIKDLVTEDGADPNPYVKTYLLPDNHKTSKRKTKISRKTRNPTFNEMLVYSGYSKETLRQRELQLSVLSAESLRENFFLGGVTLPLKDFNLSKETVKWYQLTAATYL
T3 sequence (O60331 whole entry, species assumed): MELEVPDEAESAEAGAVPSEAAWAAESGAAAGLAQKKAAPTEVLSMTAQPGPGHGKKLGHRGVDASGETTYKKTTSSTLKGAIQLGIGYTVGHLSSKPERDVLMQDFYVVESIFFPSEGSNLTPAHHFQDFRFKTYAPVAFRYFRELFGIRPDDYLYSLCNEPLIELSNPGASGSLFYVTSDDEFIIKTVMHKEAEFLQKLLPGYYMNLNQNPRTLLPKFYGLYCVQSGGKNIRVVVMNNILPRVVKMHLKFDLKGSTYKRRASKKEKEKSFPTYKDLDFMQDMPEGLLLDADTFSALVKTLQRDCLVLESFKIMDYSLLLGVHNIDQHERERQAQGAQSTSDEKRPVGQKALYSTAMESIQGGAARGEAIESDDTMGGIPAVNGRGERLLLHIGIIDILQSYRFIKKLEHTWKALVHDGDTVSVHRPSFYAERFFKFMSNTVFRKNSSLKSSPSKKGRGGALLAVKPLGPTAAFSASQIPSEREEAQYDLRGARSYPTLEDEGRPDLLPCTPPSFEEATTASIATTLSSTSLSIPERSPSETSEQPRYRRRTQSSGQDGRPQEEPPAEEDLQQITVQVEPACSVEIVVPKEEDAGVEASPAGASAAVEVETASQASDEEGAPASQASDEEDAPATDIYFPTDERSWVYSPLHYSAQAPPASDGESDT
T1 sequence (P48426 whole entry): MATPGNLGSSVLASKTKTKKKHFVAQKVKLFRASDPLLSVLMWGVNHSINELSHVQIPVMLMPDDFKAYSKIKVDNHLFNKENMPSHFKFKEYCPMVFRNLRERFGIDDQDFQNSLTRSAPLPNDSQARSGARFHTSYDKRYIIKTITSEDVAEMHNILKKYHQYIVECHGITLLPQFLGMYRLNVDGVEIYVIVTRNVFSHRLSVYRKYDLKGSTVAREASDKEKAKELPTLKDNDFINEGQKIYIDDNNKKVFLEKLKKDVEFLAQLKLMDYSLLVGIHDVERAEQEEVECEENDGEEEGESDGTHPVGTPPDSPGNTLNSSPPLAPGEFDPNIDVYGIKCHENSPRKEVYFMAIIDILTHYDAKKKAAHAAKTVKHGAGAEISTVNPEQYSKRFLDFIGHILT
T2 sequence (O75747 whole entry, species assumed): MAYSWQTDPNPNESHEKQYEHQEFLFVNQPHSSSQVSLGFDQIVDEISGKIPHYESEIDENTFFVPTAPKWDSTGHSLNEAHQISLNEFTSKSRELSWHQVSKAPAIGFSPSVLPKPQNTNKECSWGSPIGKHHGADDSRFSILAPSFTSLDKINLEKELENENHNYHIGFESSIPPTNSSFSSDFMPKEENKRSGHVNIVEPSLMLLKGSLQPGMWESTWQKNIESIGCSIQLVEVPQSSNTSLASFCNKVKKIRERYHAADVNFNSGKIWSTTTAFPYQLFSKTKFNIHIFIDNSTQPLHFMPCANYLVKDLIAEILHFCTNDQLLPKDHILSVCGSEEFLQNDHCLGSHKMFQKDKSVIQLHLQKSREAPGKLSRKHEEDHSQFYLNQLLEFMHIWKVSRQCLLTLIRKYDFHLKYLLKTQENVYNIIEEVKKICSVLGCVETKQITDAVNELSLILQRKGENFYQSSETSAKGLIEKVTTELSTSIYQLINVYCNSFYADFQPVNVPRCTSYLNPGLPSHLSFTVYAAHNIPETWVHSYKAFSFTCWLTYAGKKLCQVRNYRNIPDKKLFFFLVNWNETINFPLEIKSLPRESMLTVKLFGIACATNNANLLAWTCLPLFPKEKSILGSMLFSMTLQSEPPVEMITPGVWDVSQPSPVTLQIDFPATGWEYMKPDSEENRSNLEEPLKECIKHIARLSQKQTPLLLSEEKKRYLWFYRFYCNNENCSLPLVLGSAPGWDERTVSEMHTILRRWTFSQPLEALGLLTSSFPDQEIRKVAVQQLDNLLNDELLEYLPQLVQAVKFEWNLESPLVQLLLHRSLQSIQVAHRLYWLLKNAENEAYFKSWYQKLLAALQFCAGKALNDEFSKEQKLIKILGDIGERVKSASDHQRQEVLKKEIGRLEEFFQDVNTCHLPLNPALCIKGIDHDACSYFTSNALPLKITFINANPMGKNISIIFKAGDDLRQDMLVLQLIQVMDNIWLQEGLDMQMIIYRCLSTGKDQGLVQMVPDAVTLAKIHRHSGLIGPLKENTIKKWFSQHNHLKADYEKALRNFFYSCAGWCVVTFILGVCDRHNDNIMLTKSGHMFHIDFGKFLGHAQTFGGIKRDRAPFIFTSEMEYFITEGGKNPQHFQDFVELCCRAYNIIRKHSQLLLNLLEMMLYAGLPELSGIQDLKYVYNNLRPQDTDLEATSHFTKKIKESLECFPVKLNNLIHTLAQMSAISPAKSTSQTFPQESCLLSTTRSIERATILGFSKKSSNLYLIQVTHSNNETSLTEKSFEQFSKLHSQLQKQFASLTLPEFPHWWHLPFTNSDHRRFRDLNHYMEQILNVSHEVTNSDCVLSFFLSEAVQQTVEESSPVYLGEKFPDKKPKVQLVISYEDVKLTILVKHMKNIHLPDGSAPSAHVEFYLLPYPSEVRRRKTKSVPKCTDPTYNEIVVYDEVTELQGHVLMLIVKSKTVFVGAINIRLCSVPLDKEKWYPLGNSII

non B-ALL specimens sensitive with IC50<1 μM [1]: 14% | activity at 10 µM (PIP4K2α): 105% | activity at 10 µM (PI3KC2γ): 63% | activity at 10 µM (PIP5K1γ): 103% | activity at 10 µM (PI3KC2α): 55% | activity at 10 µM (PIP5K1α): 100%
SMILES: O=C(N1CCCC1)N1CCC(n2cnc3c(-n4c(C(F)F)nc5ccccc54)nc(N4CCOCC4)nc32)CC1 [X-370]
B-ALL specimens sensitive with IC50<1 μM (primary B-ALL cells): 61%
